Common to all, as to format: functional
For assay [1], the target named is Tyrosine-protein kinase Lck (Homo sapiens, UniProt P06239).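 Note: lck was assayed as one member of a kinase panel.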
The target of another assay is T1, Aurora kinase A (Homo sapiens, UniProt O14965).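 Note: value from the Navigating the Kinome kinase panel profiling, panel entry STK6.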
T1 sequence (O14965 whole entry): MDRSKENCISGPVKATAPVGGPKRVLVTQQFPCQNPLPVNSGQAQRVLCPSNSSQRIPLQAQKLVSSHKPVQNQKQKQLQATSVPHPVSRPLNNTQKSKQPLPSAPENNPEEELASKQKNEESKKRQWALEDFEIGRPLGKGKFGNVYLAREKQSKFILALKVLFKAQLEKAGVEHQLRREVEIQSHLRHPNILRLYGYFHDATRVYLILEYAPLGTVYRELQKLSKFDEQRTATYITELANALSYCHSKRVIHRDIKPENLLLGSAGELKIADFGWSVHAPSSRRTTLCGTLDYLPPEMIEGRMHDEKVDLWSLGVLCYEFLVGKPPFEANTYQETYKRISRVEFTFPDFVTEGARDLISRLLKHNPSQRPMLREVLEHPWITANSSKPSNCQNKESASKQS

Another assay deals with HeLa. Kind of assay: viability loss in HeLa cells – cell-based, 24 h, cherry-picked samples, cytotoxicity control, dose response (AID 504726).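 Note: potency for cytotoxicity as loss of luminescence signal.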 The conditions noted are these: Homo sapiens.
For assay [2], the target named is Casein kinase II subunit alpha (Homo sapiens, UniProt P68400).
Assay [3] concerns the target Serine/threonine-protein kinase PAK 1 (Homo sapiens, UniProt Q13153).
The target of assay [4] is Serine/threonine-protein kinase Chk2 (Homo sapiens, UniProt O96017).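 Note: CHEK2 entry within a kinome-wide screening panel.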
In assay [5] the target is Serine/threonine-protein kinase pim-3 (Homo sapiens, UniProt Q86V86).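 Note: value obtained as one member of a broad kinase panel profiling effort.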
For assay [6], the target named is Serine/threonine-protein kinase PLK3 (Homo sapiens, UniProt Q9H4B4).
Assay [7] has as its target Protein kinase C delta type (Homo sapiens, UniProt Q05655).
For assay [8], the target named is Casein kinase I isoform delta (Homo sapiens, UniProt P48730).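 Note: measured as one member (CSNK1D) of a kinome panel.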
Assay [9] has as its target Serine/threonine-protein kinase N2 (Homo sapiens, UniProt Q16513).
Assay [10] deals with STE20-like serine/threonine-protein kinase (Homo sapiens, UniProt Q9H2G2).
For assay [11], the target named is MAP kinase-activated protein kinase 2 (Homo sapiens, UniProt P49137).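 Note: measured as one member of a kinome-wide kinase panel.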
For assay [12], the target named is Protein kinase C gamma type (Homo sapiens, UniProt P05129).

Calls of active or inactive are those of the source.

The results in this text go back to ChEMBL document CHEMBL1201862, “PubChem BioAssay data set” (2004).

Chain of MAP kinase-activated protein kinase 2 (P49137 whole entry): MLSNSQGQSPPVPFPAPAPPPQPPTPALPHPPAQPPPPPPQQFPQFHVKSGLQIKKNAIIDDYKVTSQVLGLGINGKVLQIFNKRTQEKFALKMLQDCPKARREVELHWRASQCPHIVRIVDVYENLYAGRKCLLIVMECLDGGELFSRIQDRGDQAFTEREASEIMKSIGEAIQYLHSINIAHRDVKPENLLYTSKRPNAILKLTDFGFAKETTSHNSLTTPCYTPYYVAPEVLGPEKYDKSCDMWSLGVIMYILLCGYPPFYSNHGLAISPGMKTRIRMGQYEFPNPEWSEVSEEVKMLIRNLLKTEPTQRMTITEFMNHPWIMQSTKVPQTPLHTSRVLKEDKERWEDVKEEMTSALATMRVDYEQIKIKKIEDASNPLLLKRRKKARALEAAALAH
Chain of STE20-like serine/threonine-protein kinase (Q9H2G2 whole entry): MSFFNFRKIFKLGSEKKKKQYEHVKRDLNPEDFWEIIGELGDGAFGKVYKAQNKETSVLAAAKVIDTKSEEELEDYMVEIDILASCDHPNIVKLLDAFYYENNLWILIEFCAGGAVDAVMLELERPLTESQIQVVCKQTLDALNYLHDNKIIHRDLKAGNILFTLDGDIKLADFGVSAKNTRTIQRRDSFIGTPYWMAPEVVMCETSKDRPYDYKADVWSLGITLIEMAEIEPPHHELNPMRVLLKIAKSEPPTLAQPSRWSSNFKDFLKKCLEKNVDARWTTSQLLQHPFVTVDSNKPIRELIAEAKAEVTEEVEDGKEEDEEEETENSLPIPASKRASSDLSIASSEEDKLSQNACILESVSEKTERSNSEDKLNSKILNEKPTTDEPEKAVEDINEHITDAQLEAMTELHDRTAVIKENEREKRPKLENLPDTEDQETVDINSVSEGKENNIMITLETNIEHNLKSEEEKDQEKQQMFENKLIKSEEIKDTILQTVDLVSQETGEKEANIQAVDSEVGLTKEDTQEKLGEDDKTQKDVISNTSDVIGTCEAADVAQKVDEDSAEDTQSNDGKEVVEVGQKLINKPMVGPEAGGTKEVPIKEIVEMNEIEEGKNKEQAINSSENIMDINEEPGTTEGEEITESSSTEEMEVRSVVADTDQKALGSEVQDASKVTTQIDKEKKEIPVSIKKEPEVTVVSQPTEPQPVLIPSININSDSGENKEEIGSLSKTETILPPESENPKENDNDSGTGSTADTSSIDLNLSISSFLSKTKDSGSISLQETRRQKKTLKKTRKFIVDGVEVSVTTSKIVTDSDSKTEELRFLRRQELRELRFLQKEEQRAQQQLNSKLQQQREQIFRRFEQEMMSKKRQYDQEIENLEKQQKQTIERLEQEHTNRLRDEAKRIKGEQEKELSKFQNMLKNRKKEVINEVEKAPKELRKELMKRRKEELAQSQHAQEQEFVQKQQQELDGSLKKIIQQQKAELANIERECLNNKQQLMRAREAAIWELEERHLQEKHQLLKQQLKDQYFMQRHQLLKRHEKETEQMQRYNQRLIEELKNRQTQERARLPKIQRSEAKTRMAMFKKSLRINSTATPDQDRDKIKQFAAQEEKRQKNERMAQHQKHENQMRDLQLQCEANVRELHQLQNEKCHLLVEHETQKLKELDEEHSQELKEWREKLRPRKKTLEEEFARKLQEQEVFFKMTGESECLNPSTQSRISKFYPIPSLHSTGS
Chain of Serine/threonine-protein kinase PAK 1 (Q13153 whole entry): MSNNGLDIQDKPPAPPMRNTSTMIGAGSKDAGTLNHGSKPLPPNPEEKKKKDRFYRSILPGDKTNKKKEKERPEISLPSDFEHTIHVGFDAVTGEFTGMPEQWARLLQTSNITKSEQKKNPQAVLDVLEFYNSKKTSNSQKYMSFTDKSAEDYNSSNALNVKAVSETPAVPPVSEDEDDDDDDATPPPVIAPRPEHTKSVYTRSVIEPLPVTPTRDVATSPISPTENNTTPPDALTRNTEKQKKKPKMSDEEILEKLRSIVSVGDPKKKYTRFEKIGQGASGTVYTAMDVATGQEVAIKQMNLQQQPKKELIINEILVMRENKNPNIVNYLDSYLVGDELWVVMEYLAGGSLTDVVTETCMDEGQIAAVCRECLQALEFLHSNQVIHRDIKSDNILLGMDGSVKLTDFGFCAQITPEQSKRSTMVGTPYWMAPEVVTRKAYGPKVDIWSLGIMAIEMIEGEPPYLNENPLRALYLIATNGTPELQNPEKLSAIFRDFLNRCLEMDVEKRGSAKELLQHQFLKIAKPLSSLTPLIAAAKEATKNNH
Chain of Protein kinase C delta type (Q05655 whole entry, canonical isoform): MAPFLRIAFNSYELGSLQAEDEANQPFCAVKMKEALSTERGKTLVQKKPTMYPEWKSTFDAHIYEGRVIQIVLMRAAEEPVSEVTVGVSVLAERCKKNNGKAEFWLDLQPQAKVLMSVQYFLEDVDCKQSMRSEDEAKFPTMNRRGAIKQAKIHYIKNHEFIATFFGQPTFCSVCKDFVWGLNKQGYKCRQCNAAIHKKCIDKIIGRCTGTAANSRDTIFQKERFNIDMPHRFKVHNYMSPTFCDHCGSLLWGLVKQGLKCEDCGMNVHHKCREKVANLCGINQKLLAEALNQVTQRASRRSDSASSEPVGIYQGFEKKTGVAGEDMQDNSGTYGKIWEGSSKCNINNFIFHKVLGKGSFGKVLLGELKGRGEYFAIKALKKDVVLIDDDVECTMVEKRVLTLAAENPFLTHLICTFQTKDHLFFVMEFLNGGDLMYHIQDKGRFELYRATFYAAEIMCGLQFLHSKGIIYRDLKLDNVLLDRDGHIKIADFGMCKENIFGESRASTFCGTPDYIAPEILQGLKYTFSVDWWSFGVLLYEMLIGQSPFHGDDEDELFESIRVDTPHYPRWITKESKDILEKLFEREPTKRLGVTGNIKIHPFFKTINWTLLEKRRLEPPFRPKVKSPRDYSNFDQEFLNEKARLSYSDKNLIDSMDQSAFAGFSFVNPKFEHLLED
Chain of Casein kinase II subunit alpha (P68400 whole entry): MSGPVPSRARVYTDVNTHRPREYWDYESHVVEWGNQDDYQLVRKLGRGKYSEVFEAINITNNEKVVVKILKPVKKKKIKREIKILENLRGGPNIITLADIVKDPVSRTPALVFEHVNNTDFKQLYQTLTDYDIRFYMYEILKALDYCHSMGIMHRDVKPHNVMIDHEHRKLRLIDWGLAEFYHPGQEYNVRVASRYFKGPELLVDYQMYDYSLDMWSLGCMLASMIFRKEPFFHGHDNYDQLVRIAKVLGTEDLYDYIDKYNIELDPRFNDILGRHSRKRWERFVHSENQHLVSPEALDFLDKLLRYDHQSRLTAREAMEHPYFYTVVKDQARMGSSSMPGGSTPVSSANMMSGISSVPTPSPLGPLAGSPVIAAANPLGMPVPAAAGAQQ
Chain of Casein kinase I isoform delta (P48730 whole entry, canonical isoform): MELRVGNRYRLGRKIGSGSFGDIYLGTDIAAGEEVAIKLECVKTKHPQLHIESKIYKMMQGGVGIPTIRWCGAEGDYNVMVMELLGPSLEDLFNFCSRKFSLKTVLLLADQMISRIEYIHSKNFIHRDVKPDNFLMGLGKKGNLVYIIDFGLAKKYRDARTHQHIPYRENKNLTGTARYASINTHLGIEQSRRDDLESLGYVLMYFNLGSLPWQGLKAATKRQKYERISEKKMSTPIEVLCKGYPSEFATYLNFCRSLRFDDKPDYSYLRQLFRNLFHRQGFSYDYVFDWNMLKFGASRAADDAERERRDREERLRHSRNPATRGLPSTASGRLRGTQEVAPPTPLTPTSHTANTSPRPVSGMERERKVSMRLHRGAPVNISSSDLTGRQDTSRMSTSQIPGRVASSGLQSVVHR

A word on the Ki: it is the equilibrium dissociation constant of an inhibitor or competing ligand from its target. As for `COc1cccc(CNC(=O)c2cnc(-c3ccncc3)nc2)c1`, the Ki in assay [1] was > 6310 nM (inactive); at Aurora kinase A, > 1580 nM (inactive).
In general, AC50 refers to the concentration at which the activity in the assay is half-maximal. With `CCN(CC)CCCC(C)n1c2nc(=O)[nH]c(=O)c-2nc2cc(Cl)ccc21` (stereo not drawn), the AC50 in the assay on HeLa was 8490 nM (active).
Broadly, the pKi is the Ki on a negative log10 scale, so that one unit is a factor of ten. The low end stands for a large Ki, the high end for a small Ki. In the case of `OC1CCC(Nc2nc(Cl)cc(-c3c[nH]c4ncccc34)n2)CC1` (stereo not drawn), the Ki in [2] was 158 nM (active); in [3], 1260 nM (active); in assay [4], > 1580 nM (inactive); in assay [5] it was 3160 nM (active); in assay [6], > 7940 nM (inactive); in [7] it was 63.1 nM (active). For the same compound, the Ki in assay [8] is 20 nM (active); in [9], 7.94 nM (active); in [10] it was 501 nM (active); in assay [11] it was 3980 nM (active); in assay [12], 200 nM (active). The pKi in [2] was 6.8; in assay [3] it was 5.9; in assay [5], 5.5; in assay [7], 7.2; in assay [8] it was 7.7; in assay [9], 8.1. Besides, the pKi in assay [10] came out at 6.3; in assay [11] it was 5.4; in assay [12], 6.7.
